Source: US9765075B2, “Substituted bridged urea analogs as sirtuin modulators” (GLAXOSMITHKLINE LLC, priority 2013, dated 2017)

Biological target: T1, SIRT1 (Homo sapiens, UniProt Q96EB6)
T1 sequence (Q96EB6 1-747): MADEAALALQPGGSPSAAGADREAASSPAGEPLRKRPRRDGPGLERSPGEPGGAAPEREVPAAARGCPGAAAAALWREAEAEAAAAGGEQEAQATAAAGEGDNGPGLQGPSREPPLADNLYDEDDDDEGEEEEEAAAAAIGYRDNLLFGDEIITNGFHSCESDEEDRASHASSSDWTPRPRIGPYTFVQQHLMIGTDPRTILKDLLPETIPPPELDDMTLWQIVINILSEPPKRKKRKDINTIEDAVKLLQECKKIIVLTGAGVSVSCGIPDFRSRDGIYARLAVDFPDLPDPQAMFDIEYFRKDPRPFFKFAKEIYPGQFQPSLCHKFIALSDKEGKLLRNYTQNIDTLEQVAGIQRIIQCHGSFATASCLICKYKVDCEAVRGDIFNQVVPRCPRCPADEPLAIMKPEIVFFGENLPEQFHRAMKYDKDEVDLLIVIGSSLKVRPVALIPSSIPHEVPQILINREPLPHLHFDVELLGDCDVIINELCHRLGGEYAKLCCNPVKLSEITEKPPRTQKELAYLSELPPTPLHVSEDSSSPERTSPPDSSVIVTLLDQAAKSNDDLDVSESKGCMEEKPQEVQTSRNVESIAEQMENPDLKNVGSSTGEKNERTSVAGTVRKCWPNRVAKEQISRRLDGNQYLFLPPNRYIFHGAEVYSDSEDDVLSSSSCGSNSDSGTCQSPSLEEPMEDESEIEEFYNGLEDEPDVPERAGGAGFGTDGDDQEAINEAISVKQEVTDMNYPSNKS
Experiment: Trp mass spectrometry assay (SIRT1 activation)
Format: biochemical
Conditions: Trp peptide substrate; for Tryp AVG EC1.5 (μM): concentration of test compound that results in 150% activation of SIRT1; for Emax: percent maximum fold activation of SIRT1, read-out: Tryp % Fold Act
Method in brief: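 N-His-tagged SIRT1 (10 nM), expressed in E. coli, was incubated with 0.5 μM Ac-RHKK(Ac)W-NH2 peptide and 120 μM NAD+ for 25 min at 25 °C in HEPES pH 7.5 with […]. The reaction was stopped with formic acid and O-acetyl-ADP-ribose or deacetylated peptide was quantified by mass spectrometry. Results are given as EC1.5 and percent maximal activation relative to DMSO control.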

Structure (SMILES) | Tryp AVG EC1.5 (μM) | Emax
O=C(Nc1ccccn1)N1c2nc(-c3cccc(N4CC[C@H](F)C4)c3)ccc2N2CC[C@H]1C2 [Example 280] | A (EC1.5<1 μM) | ≥ 150%
COc1cc(NC(=O)N2c3nc(-c4cccc(N5CC[C@@H](F)C5)c4)ccc3N3CC[C@H]2C3)ncn1 [Example 281] | A (EC1.5<1 μM) | ≥ 150%
O=C(Nc1cncc(F)c1)N1c2nc(-c3cccc(N4CC[C@@H](F)C4)c3)ccc2N2CC[C@H]1C2 [Example 282] | A (EC1.5<1 μM) | ≥ 150%
O=C(Nc1cncc(F)c1)N1c2nc(-c3cccc(N4CC[C@H](F)C4)c3)ccc2N2CC[C@H]1C2 [Example 283] | A (EC1.5<1 μM) | ≥ 150%
O=C(Nc1cnccn1)N1c2nc(-c3ccnc(F)c3)ccc2N2CC[C@H]1C2 [Example 284] | B (EC1.5 1-25 μM) | ≥ 150%
O=C(Nc1cccc(-c2cnco2)c1)N1c2nc(N3CCCC(C(F)(F)F)C3)ccc2N2CCC[C@H]1C2 (stereo partly drawn) [Example 285] | A (EC1.5<1 μM) | ≥ 150%
O=C(Nc1ccccn1)N1c2nc(N3CCCC(C(F)(F)F)C3)ccc2N2CCC[C@H]1C2 (stereo partly drawn) [Example 286] | A (EC1.5<1 μM) | ≥ 150%
Cc1cc(C)nc(NC(=O)N2c3nc(N4CCCC(C(F)(F)F)C4)ccc3N3CCC[C@H]2C3)c1 (stereo partly drawn) [Example 287] | B (EC1.5 1-25 μM) | ≥ 150%
O=C(Nc1cccnc1)N1c2nc(N3CCCC(C(F)(F)F)C3)ccc2N2CCC[C@H]1C2 (stereo partly drawn) [Example 288] | A (EC1.5<1 μM) | ≥ 150%
Cc1cncc(NC(=O)N2c3nc(N4CCCC(C(F)(F)F)C4)ccc3N3CCC[C@H]2C3)c1 (stereo partly drawn) [Example 289] | A (EC1.5<1 μM) | ≥ 150%
O=C(Nc1cncc(F)c1)N1c2nc(N3CCCC(C(F)(F)F)C3)ccc2N2CCC[C@H]1C2 (stereo partly drawn) [Example 290] | A (EC1.5<1 μM) | ≥ 150%
O=C(Nc1ccncc1F)N1c2nc(N3CCCC(C(F)(F)F)C3)ccc2N2CCC[C@H]1C2 (stereo partly drawn) [Example 291] | B (EC1.5 1-25 μM) | ≥ 150%
O=C(Nc1ncccn1)N1c2nc(N3CCCC(C(F)(F)F)C3)ccc2N2CCC[C@H]1C2 (stereo partly drawn) [Example 292] | A (EC1.5<1 μM) | ≥ 150%
O=C(Nc1cnccn1)N1c2nc(N3CCCC(C(F)(F)F)C3)ccc2N2CCC[C@H]1C2 (stereo partly drawn) [Example 293] | A (EC1.5<1 μM) | ≥ 150%
O=C(Nc1ccncn1)N1c2nc(N3CCCC(C(F)(F)F)C3)ccc2N2CCC[C@H]1C2 (stereo partly drawn) [Example 294] | B (EC1.5 1-25 μM) | ≥ 150%
O=C(Nc1nccs1)N1c2nc(N3CCCC(C(F)(F)F)C3)ccc2N2CCC[C@H]1C2 (stereo partly drawn) [Example 295] | A (EC1.5<1 μM) | ≥ 150%
Cc1cnc(NC(=O)N2c3nc(N4CCCC(C(F)(F)F)C4)ccc3N3CCC[C@H]2C3)s1 (stereo partly drawn) [Example 296] | B (EC1.5 1-25 μM) | ≥ 150%
Cc1csc(NC(=O)N2c3nc(N4CCCC(C(F)(F)F)C4)ccc3N3CCC[C@H]2C3)n1 (stereo partly drawn) [Example 297] | B (EC1.5 1-25 μM) | ≥ 150%
Cc1nc(NC(=O)N2c3nc(N4CCCC(C(F)(F)F)C4)ccc3N3CCC[C@H]2C3)sc1C (stereo partly drawn) [Example 298] | B (EC1.5 1-25 μM) | ≥ 150%
O=C(Nc1cccc(-c2cnco2)c1)N1c2nc(N3CCCC(C(F)(F)F)C3)ccc2N2CCC[C@@H]1C2 (stereo partly drawn) [Example 299] | A (EC1.5<1 μM) | ≥ 150%
O=C(Nc1ccccn1)N1c2nc(N3CCCC(C(F)(F)F)C3)ccc2N2CCC[C@@H]1C2 (stereo partly drawn) [Example 300] | C (EC1.5>25 μM) | < 150%
Cc1cc(C)nc(NC(=O)N2c3nc(N4CCCC(C(F)(F)F)C4)ccc3N3CCC[C@@H]2C3)c1 (stereo partly drawn) [Example 301] | C (EC1.5>25 μM) | < 150%
O=C(Nc1cccnc1)N1c2nc(N3CCCC(C(F)(F)F)C3)ccc2N2CCC[C@@H]1C2 (stereo partly drawn) [Example 302] | B (EC1.5 1-25 μM) | ≥ 150%
O=C(Nc1ccncn1)N1c2nc(N3CCCC(C(F)(F)F)C3)ccc2N2CCC[C@@H]1C2 (stereo partly drawn) [Example 308] | C (EC1.5>25 μM) | ≥ 150%

Next, values leading:

Tryp AVG EC1.5 (μM) | Emax | Structure (SMILES)
B (EC1.5 1-25 μM) | ≥ 150% | Cc1cncc(NC(=O)N2c3nc(N4CCCC(C(F)(F)F)C4)ccc3N3CCC[C@@H]2C3)c1 (stereo partly drawn) [Example 303]
B (EC1.5 1-25 μM) | ≥ 150% | O=C(Nc1cncc(F)c1)N1c2nc(N3CCCC(C(F)(F)F)C3)ccc2N2CCC[C@@H]1C2 (stereo partly drawn) [Example 304]
B (EC1.5 1-25 μM) | ≥ 150% | O=C(Nc1ccncc1)N1c2nc(N3CCCC(C(F)(F)F)C3)ccc2N2CCC[C@@H]1C2 (stereo partly drawn) [Example 305]
B (EC1.5 1-25 μM) | ≥ 150% | O=C(Nc1cnccn1)N1c2nc(N3CCCC(C(F)(F)F)C3)ccc2N2CCC[C@@H]1C2 (stereo partly drawn) [Example 307]
B (EC1.5 1-25 μM) | ≥ 150% | COc1cncc(NC(=O)N2c3nc(N4CCCC(C(F)(F)F)C4)ccc3N3CCC[C@@H]2C3)c1 (stereo partly drawn) [Example 309]
B (EC1.5 1-25 μM) | ≥ 150% | O=C(Nc1nccs1)N1c2nc(N3CCCC(C(F)(F)F)C3)ccc2N2CCC[C@@H]1C2 (stereo partly drawn) [Example 310]
C (EC1.5>25 μM) | < 150% | Cc1cnc(NC(=O)N2c3nc(N4CCCC(C(F)(F)F)C4)ccc3N3CCC[C@@H]2C3)s1 (stereo partly drawn) [Example 311]
B (EC1.5 1-25 μM) | ≥ 150% | Cc1csc(NC(=O)N2c3nc(N4CCCC(C(F)(F)F)C4)ccc3N3CCC[C@@H]2C3)n1 (stereo partly drawn) [Example 312]
C (EC1.5>25 μM) | < 150% | Cc1nc(NC(=O)N2c3nc(N4CCCC(C(F)(F)F)C4)ccc3N3CCC[C@@H]2C3)sc1C (stereo partly drawn) [Example 313]
B (EC1.5 1-25 μM) | ≥ 150% | O=C(Nc1cccc(C2(C(F)(F)F)N=N2)c1)N1c2nc(-c3cccc(C(F)(F)F)c3)ccc2N2CC[C@H]1C2 [Example 315]
A (EC1.5<1 μM) | ≥ 150% | O=C(Nc1ccccn1)N1c2nc(-c3cncc(C(F)(F)F)c3)ccc2N2CC[C@H]1C2 [Example 316]
B (EC1.5 1-25 μM) | ≥ 150% | COc1cc(NC(=O)N2c3nc(-c4cncc(C(F)(F)F)c4)ccc3N3CC[C@H]2C3)ncn1 [Example 317]
B (EC1.5 1-25 μM) | ≥ 150% | O=C(Nc1ccccn1)N1c2nc(-c3cccc(N4CCC(C(F)(F)F)C4)c3)ccc2N2CC[C@H]1C2 (stereo partly drawn) [Example 318]
B (EC1.5 1-25 μM) | ≥ 150% | O=C(Nc1cnccn1)N1c2nc(-c3cccc(N4CCC(C(F)(F)F)C4)c3)ccc2N2CC[C@H]1C2 (stereo partly drawn) [Example 319]
B (EC1.5 1-25 μM) | ≥ 150% | COc1cc(NC(=O)N2c3nc(-c4cccc(N5CCC(C(F)(F)F)C5)c4)ccc3N3CC[C@H]2C3)ncn1 (stereo partly drawn) [Example 320]
B (EC1.5 1-25 μM) | ≥ 150% | O=C(Nc1ccc(F)cn1)N1c2nc(-c3cccc(N4CCC(C(F)(F)F)C4)c3)ccc2N2CC[C@H]1C2 (stereo partly drawn) [Example 321]
B (EC1.5 1-25 μM) | ≥ 150% | O=C(Nc1cncc(F)c1)N1c2nc(-c3cccc(N4CCC(C(F)(F)F)C4)c3)ccc2N2CC[C@H]1C2 (stereo partly drawn) [Example 323]
A (EC1.5<1 μM) | ≥ 150% | O=C(Nc1ccccn1)N1c2nc(-c3cc(Cl)cc(Cl)c3)ccc2N2CC[C@H]1C2 [Example 324]
A (EC1.5<1 μM) | ≥ 150% | Cc1cncc(-c2ccc3c(n2)N(C(=O)Nc2ccccn2)[C@H]2CCN3C2)c1 [Example 325]
B (EC1.5 1-25 μM) | ≥ 150% | CS(=O)(=O)c1ccc(-c2ccc3c(n2)N(C(=O)Nc2ccccn2)[C@H]2CCN3C2)cc1 [Example 326]
C (EC1.5>25 μM) | ≥ 150% | Cc1noc(C)c1-c1ccc2c(n1)N(C(=O)Nc1ccccn1)[C@H]1CCN2C1 [Example 327]
B (EC1.5 1-25 μM) | ≥ 150% | CS(=O)(=O)c1cncc(-c2ccc3c(n2)N(C(=O)Nc2ccccn2)[C@H]2CCN3C2)c1 [Example 328]
A (EC1.5<1 μM) | ≥ 150% | O=C(Nc1ccccn1)N1c2nc(-c3ccc(F)c(Cl)c3)ccc2N2CC[C@H]1C2 [Example 329]
A (EC1.5<1 μM) | ≥ 150% | CC(C)c1cccc(-c2ccc3c(n2)N(C(=O)Nc2ccccn2)[C@H]2CCN3C2)c1 [Example 330]
